Results taken from patent US10072005B2, “4-azaindole derivatives” (EISAI R&D MANAGEMENT CO., LTD., priority 2013, dated 2018).

Experiments:
[1] = target: mAChR M2 (Homo sapiens (Human), UniProt P08172); assay: In vitro cellular calcium flux assay, PAM, NAM and agonist modes, mAChR M2; assay type: cell-based
Experimental: (§1) Baby hamster kidney cells stably expressing human or rat mAChR M1 to M5 were utilised for primary and selectivity profiling activities. mAChR M2 and M4 cell lines also stably expressed the chimeric Gαqi5 G-protein.
(§2) Human mAChR M1, M3, M5 and rat M1 cells were grown in low glucose Dulbecco's Modified Eagle's Medium (DMEM) medium plus heat inactivated 10% fetal bovine serum (HI FBS) and 500 μg/ml hygromycin B^1. Human mAChR M2 and M4 cells were maintained as above with^2 the addition of 500 μg/ml G418 to the media. Cells were maintained in culture at 37° C./5% CO2 and passaged twice weekly by treatment with 0.05% Trypsin/EDTA detachment solution, centrifugation (200 g, 5 min) and re-suspension in fresh media. Following cell expansion, cells were cryopreserved at −80° C. by treatment with 0.05% Trypsin/EDTA detachment solution, centrifugation (200 g, 5 min) and re-suspension of the pellet in freezing media (90% HI FBS/10% DMSO^3) at 15E6 cells/ml^4.
(§3) Prior to assaying, cells were prepared by thawing at 37° C. in a water bath, centrifugation (200 g, 5 min) and re-suspension of the pellet in fresh media. 15000 cells per well were seeded in black, clear bottomed 384-well Greiner Bio-One plates in plating medium (DMEM/10% HI FBS) and incubated overnight at 37 C/5% CO2.
(§4) On the day of the assay, media was removed from each well and replaced with 50 μl^5 assay buffer (HBSS with 20 mM HEPES and 2.5 mM Probenecid) containing the calcium indicator, Calcium 4 (Molecular Devices). Cells were then incubated at 37° C./5% CO2 for 30 min and at room temperature.
(§5) Compound preparation was carried out by generation of 11-point, 1 in 3 serial dilution concentration response curves in 100% DMSO. Compound was then diluted 1 in 65^6 with assay buffer (HBSS with 20 mM HEPES and 2.5 mM Probenecid) prior to the addition of 10 ul^7 to the cells using a Tetra fluorometric imaging plate reader (Molecular Devices)^8. Compound driven increases in intracellular calcium flux was measured as an increase in fluorescence (494Ex, 516Em)^9.
(§6) Positive allosteric modulator pEC50 values and antagonist pIC50 values for each compound were then determined. […] The points of modification and the alternate reagents, concentrations or equipment employed in these examples were: ^1200 μg/ml hygromycin B; ^2G418 not added; ^3CELLBANKER 1; ^410E6; ^5 40 μl; ^6 1 in 99; ^7 20 μl; ^8FDSS6000 (Hamamatsu Photonics); ^9(480Ex, 540Em); ^10Spotfire (TIBCO).
(§7) Certain compounds were tested in PAM, NAM and agonist modes against mAChR M2, M3, M4 and M5.

[2] = target: mAChR M3 (Homo sapiens (Human), UniProt P20309); assay: In vitro cellular calcium flux assay, PAM, NAM and agonist modes, mAChR M3; assay type: cell-based
Chain of mAChR M3 (P20309 whole entry, looked up): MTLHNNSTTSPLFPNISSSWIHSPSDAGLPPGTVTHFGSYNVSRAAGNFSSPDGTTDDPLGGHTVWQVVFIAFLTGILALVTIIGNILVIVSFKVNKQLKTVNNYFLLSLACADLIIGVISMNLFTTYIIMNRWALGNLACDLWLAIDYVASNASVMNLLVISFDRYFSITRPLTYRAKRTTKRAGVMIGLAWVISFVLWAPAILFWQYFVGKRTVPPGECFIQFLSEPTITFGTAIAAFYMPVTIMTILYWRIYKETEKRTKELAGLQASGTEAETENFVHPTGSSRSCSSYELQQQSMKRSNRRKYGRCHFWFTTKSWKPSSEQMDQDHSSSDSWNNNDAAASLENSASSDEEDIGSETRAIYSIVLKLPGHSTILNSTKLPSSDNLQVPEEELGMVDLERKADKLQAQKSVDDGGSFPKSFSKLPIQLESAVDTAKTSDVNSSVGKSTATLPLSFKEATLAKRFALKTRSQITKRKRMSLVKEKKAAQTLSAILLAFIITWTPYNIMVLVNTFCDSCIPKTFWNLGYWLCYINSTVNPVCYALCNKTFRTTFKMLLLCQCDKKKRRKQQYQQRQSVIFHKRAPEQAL
Experimental: as §1, §2, §3, §4, §5, §6, §7

[3] = target: mAChR M5 (Homo sapiens (Human), UniProt P08912); assay: In vitro cellular calcium flux assay, PAM, NAM and agonist modes, mAChR M5; assay type: cell-based
Chain of mAChR M5 (P08912 whole entry): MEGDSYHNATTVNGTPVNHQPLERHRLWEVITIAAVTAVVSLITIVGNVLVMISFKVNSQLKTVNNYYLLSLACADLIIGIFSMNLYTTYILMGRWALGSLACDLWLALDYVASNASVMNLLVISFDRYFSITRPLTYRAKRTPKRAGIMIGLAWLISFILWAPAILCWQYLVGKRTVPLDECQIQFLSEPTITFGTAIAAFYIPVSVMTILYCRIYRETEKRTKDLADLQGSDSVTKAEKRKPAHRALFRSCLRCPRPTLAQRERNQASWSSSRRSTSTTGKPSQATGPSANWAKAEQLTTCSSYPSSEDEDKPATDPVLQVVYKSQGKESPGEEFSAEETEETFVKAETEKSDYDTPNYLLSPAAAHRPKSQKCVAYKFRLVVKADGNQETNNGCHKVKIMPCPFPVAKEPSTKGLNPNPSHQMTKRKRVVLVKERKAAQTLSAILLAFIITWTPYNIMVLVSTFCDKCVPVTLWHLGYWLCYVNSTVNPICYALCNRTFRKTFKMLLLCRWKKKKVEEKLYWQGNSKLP
Experimental: as §1, §2, §3, §4, §5, §6, §7

[4] = test system: male Crlj: WI rats; assay: Morris Water Maze Test in Ibotenic Acid-Induced Learning Disability Model; assay type: in vivo, rat; conditions: for Swimming time in 4th quadrant / Frequency of entry into platform area: probe trial
Experimental: Ibotenic acid at 5 μg/0.5 μL was injected into both basal nuclei of 8-week old male Crlj: WI rats, and a Morris water maze test was performed 10-14 days after ibotenic acid injection. It has been reported that rats in which basal forebrain was lesioned by ibotenic acid injection show learning disability in the Morris water maze test. (Pharmacopsychiat, 1999, 32, 242-247). The test is considered a model of spatial learning and memory.
Learning trials were performed twice a day at an interval of 3 hours for 4 days (8 times in total), and probe trials were performed once the day after completion of the learning trials. Each test compound was dissolved in a 0.5% methylcellulose in water and orally administered 1 hour before the first trial on each day of the learning trials and 1 hour before the trial on the day of the probe trials.
A colorless clear acrylic platform (diameter: about 12 cm, height: about 30 cm) and a gray vinyl chloride circular pool (diameter: about 148 cm, height: about 44 cm), which was filled with water (temperature: 17-18° C.) up to a height of about 32 cm so that the platform was fully immersed in water, were used as the test device. Four quadrants were prepared at the bottom of the pool, and the platform was set at the center of 1 of the 4 quadrants (about 37 cm from the center of the pool). A light bulb was placed near the quadrant with the platform as a spatial cue.
In learning trials, the animal was put into water and goal latency and swimming distance to reach the platform were measured (measurement time: 90 seconds at the longest) by a video image behavioral analysis device (Etho Vision XT, Noldus Information Technology Inc.). When an animal reached the platform within 90 seconds and stayed on the platform for 30 seconds, it was judged that the animal recognized the position of the platform, and the measurement was finished.
In probe trials, the platform was removed from the pool. The animal was put into water, and the swimming time in the quadrant where the platform had been located in the learning trials and the frequency of entry into the platform area where the platform had been located in the learning trials were measured by Etho Vision XT.
Each value was shown as an average and a standard error (n=10). The statistical significance between a control group and a vehicle group was analyzed by the independent t-test. The statistical significance between the vehicle group and each sample group was analyzed by one-way analysis of variance and then by Dunnett's multiple comparison test. The significance level was set to 5% on both sides. […] The analysis was carried out by using SAS system (SAS Institute Japan Ltd.).

Chain of mAChR M2 (P08172 whole entry): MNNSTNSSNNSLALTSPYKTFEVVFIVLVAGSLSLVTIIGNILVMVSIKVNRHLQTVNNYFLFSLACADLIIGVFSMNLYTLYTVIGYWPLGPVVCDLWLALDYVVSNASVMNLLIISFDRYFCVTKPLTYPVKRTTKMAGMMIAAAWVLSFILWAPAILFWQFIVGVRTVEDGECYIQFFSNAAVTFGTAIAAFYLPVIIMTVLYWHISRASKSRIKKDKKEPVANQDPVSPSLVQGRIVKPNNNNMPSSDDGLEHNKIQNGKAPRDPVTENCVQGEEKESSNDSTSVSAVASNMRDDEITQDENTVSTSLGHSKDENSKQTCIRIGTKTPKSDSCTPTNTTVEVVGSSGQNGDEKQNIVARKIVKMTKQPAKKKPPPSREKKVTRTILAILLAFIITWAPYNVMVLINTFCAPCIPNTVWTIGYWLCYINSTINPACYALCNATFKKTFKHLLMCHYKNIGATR

**Q.** What does the source list for `O=C(N[C@H]1CCCC[C@@H]1O)c1cn(Cc2ccc(F)cc2)c2cccnc12` [Example 5, 1-(4-Fluorobenzyl)-N-((1S,2S)-2-hydroxycyclohexyl)-1H-pyrrolo[3,2-b]pyridine-3-carboxamide]?
**A.** EC50 [1]: > 10 µM; EC50 [2]: > 10 µM; EC50 [3]: > 10 µM; Goal latency ([4]; Trial 1, 0.1 mg/kg p.o.): [90 ± 0.00] sec.; Swimming distance ([4]; Trial 1, 0.1 mg/kg p.o.): [2152.96 ± 91.73] cm; Goal latency ([4]; Trial 1, 0.3 mg/kg p.o.): [90 ± 0.00] sec.; Swimming distance ([4]; Trial 1, 0.3 mg/kg p.o.): [2400.75 ± 122.49] cm; Goal latency ([4]; Trial 2, 0.1 mg/kg p.o.): [90 ± 0.00] sec.; Swimming distance ([4]; Trial 2, 0.1 mg/kg p.o.): [2353.99 ± 145.71] cm; Goal latency ([4]; Trial 2, 0.3 mg/kg p.o.): [89.47 ± 0.53] sec.; Swimming distance ([4]; Trial 2, 0.3 mg/kg p.o.): [2533.19 ± 86.87] cm; Goal latency ([4]; Trial 3, 0.1 mg/kg p.o.): [78.81 ± 8.1] sec.; Swimming distance ([4]; Trial 3, 0.1 mg/kg p.o.): [1884.79 ± 174.8] cm; Goal latency ([4]; Trial 3, 0.3 mg/kg p.o.): [75.08 ± 7.99] sec.; Swimming distance ([4]; Trial 3, 0.3 mg/kg p.o.): [1945.42 ± 189.94] cm; Goal latency ([4]; Trial 4, 0.1 mg/kg p.o.): [79.59 ± 7.36] sec.; Swimming distance ([4]; Trial 4, 0.1 mg/kg p.o.): [1822.32 ± 206.29] cm; Goal latency ([4]; Trial 4, 0.3 mg/kg p.o.): [60.53 ± 12.15]# sec.; Swimming distance ([4]; Trial 4, 0.3 mg/kg p.o.): [1592.82 ± 308.21] cm; Goal latency ([4]; Trial 5, 0.1 mg/kg p.o.): [83.06 ± 4.7] sec.; Swimming distance ([4]; Trial 5, 0.1 mg/kg p.o.): [1918.78 ± 132.12] cm; Goal latency ([4]; Trial 5, 0.3 mg/kg p.o.): [53.99 ± 10.18]## sec.; Swimming distance ([4]; Trial 5, 0.3 mg/kg p.o.): [1417.94 ± 229.44]## cm; Goal latency ([4]; Trial 6, 0.1 mg/kg p.o.): [66.13 ± 12.22] sec.; Swimming distance ([4]; Trial 6, 0.1 mg/kg p.o.): [1464.97 ± 308.91] cm; Goal latency ([4]; Trial 6, 0.3 mg/kg p.o.): [33.09 ± 9.78]## sec.; Swimming distance ([4]; Trial 6, 0.3 mg/kg p.o.): [876.2 ± 203.14]## cm; Goal latency ([4]; Trial 7, 0.1 mg/kg p.o.): [76.97 ± 8.11] sec.; Swimming distance ([4]; Trial 7, 0.1 mg/kg p.o.): [1839.16 ± 221.78] cm; Goal latency ([4]; Trial 7, 0.3 mg/kg p.o.): [50.1 ± 10.02]## sec.; Swimming distance ([4]; Trial 7, 0.3 mg/kg p.o.): [1329.27 ± 236.21]## cm; Goal latency ([4]; Trial 8, 0.1 mg/kg p.o.): [67.24 ± 10.13] sec.; Swimming distance ([4]; Trial 8, 0.1 mg/kg p.o.): [1492.52 ± 260.05] cm; Goal latency ([4]; Trial 8, 0.3 mg/kg p.o.): [38.02 ± 10.74]## sec.; Swimming distance ([4]; Trial 8, 0.3 mg/kg p.o.): [1020.57 ± 253.94]## cm; Swimming time in 4th quadrant ([4]; 0-30 sec., 0.1 mg/kg p.o.): [8.90 ± 1.02]# sec.; Swimming time in 4th quadrant ([4]; 0-30 sec., 0.3 mg/kg p.o.): [7.19 ± 1.11] sec.; Frequency of entry into platform area ([4]; 0.1 mg/kg p.o.): [0.9 ± 0.3]; Frequency of entry into platform area ([4]; 0.3 mg/kg p.o.): [1.7 ± 0.5]##; Swimming time in 4th quadrant ([4]; 30-60 sec., 0.1 mg/kg p.o.): [9.41 ± 1.80]# sec.; Swimming time in 4th quadrant ([4]; 30-60 sec., 0.3 mg/kg p.o.): [8.48 ± 1.25] sec.; Swimming time in 4th quadrant ([4]; 60-90 sec., 0.1 mg/kg p.o.): [7.74 ± 0.85] sec.; Swimming time in 4th quadrant ([4]; 60-90 sec., 0.3 mg/kg p.o.): [7.49 ± 1.37] sec.; Swimming time in 4th quadrant ([4]; Total, 0.1 mg/kg p.o.): [26.05 ± 2.03]## sec.; Swimming time in 4th quadrant ([4]; Total, 0.3 mg/kg p.o.): [23.16 ± 2.97] sec.
